Laboratory results from patent US20240391978A1, “APOLIPOPROTEIN FUSION PROTEINS FOR CELL-SPECIFIC IMMUNE REGULATION” (BIO-TRIP B.V., priority 2021, published 2024).

Legend:
[1] = system: tolerant monocytes from the LPS-challenged volunteers; assay: Experimental human endotoxemia model, ex vivo tolerance reversal; assay type: cell-based; settings: ex vivo exposure 24 hours, re-stimulation on day 3
Text: In vivo experimental human endotoxemia model and ex vivo analyses: Eight healthy (as confirmed by medical history, physical examination, and routine laboratory testing) male volunteers provided written informed consent to participate in experimental endotoxemia experiments conducted at the research unit of the intensive care department of the Radboud university medical center. All study procedures were approved by the local ethics committee (CMO Arnhem-Nijmegen, registration numbers NL71293.091.19 and 2019-5730), and were conducted in accordance with the latest version of the declaration of Helsinki.
A continuous endotoxin infusion regimen was employed, as is described in detail elsewhere (van Lier, D., Geven, C., Leijte, G. P. & Pickkers, P. Experimental human endotoxemia as a model of systemic inflammation. Biochimie 159, 99-106, doi:10.1016/j.biochi.2018.06.014 (2019)). […] A 3-lead ECG was recorded continuously throughout the experiment. […] Participants were monitored for 8 hours after the endotoxin loading dose after which they were discharged from the research unit. […]
Cytokine and lactate measurements: TNF, IL6, and IL1Ra were measured in cell culture supernatants using duoset ELISA kits (R&D systems), according to the manufacturer's instructions. […] Immediately thereafter, fluorescence was measured at 530/25 nm and 590/35 nm. […]

[2] = system: Macrophages; assay: Phagocytosis assay; assay type: cell-based, human; settings: IL4-trained cells vs untrained controls; data not shown
Method: Phagocytosis assay: Macrophages were harvested as described above and incubated at 37° C. for 1 hour with FITC-labeled Candida albicans (kindly provided by Dr. Martin Jaeger, Radboudumc) at an MOI of 1:5. The cells were washed 2 times with ice-cold PBA and kept on ice to halt the phagocytosis. The cells were stained for CD45 (table 3) during 30 minutes in the dark at 4° C. Following two washes, trypan blue was added to a final concentration of 0.01% to quench extracellular FITC-Candida. The cells were then acquired on a Cytoflex flow cytometer.
During data analysis, CD45+ events were first selected to remove Candida-only events. Single cells were then gated on as described above and the percentage of Candida-FITC positive macrophages in each sample was calculated.

[3] = system: Macrophages; assay: Seahorse metabolic analyses of IL4-trained cells; assay type: cell-based, human; settings: IL4 training on day 0, measured on day 6
Method: Seahorse metabolic analyses: Macrophages were harvested as described above. The cells were resuspended in RPMI+++ and seeded into overnight-calibrated cartridges at 10^5 cells per well. After adhering for 1 hour, the medium was changed to assay medium (Agilent; see below) and the cells were incubated for 1 hour at 37° C. in ambient C02 levels. Oxygen consumption rates (OCR) and extracellular acidification rates (ECAR) were measured as proxies for glycolytic and […] metabolism, using a Seahorse XF Glycolysis Stress Test kit or a Seahorse XF Cell Mito Stress Test kit (both Agilent; measurements performed according to manufacturer's instructions).

[4] = system: primary human monocytes; assay: In vitro model of trained immunity in primary human monocytes; assay type: cell-based
Text: In vitro model of trained immunity in primary human monocytes: To induce trained immunity in primary human monocytes, a previously optimized and published method was used (Dominguez-Andres, J. et al. In vitro induction of trained immunity in adherent human monocytes. STAR Protoc 2, 100365, doi:10.1016/j.xpro.2021.100365 (2021); van Lier, D., Geven, C., Leijte, G. P. & Pickkers, P. Experimental human endotoxemia as a model of systemic inflammation. Biochimie 159, 99-106, doi:10.1016/j.biochi.2018.06.014 (2019)). Briefly: monocytes were adhered to a flat-bottom cell culture plate for 1 hour and washed with warm PBS to remove any non-adherent cells and cell debris. Then, they were stimulated (“trained”) for 24 hours with one of the stimuli detailed in Table 1, or medium only (“untrained” control).
For pharmacological inhibition experiments, the monocytes were pre-incubated for 1 hour with one of the inhibitors described in Table 2 before addition of the training stimulus.
Following the initial 24-hour stimulation, the cells were washed with warm PBS and warm cell culture medium was added. The monocytes were then allowed to rest and differentiate into macrophages for 5 days. On day 6, the induction of trained immunity was assessed. To this end, the cells were typically re-stimulated with LPS for an additional 24 hours to elicit cytokine production. The supernatants were collected and stored at −20° C. until further analysis, e.g. with ELISA for IL6 and TNF.
Cytokine and lactate measurements: TNF, IL6, and IL1Ra were measured in cell culture supernatants using duoset ELISA kits (R&D systems), according to the manufacturer's instructions. For lactate measurements, a fluorometric assay was used. 30 μl sample, medium control, or known standard was added to a black 96-well plate. Then, 30 μl reaction mix (PBS pH 7.4, horse radish peroxidase (0.2 U/ml), lactate oxidase (2 U/ml), Amplex red (100 μM; Fisher scientific)) was added and the reaction was incubated for 20 minutes in the dark at RT. Immediately thereafter, fluorescence was measured at 530/25 nm and 590/35 nm. Gen5 software (v3.03, BioTek) was used in conjunction with Microsoft Excel to calculate cytokine and lactate concentrations in the original samples.

Substance: IL4: recombinant human interleukin 4
- production of IL6 upon re-stimulation with LPS [1]: but not IL6
- production of TNF upon re-stimulation with LPS [1]: significantly improved
- phagocytosis of heat-killed Candida albicans [2]: slightly less effective at phagocytosing heat-killed Candida albicans than untrained controls
- FCCP-triggered maximum respiration rate [3]: significantly augmented
- basal glycolysis [3]: trend towards higher basal glycolysis
- baseline respiration rate [3]: significantly augmented
- oligomycin-triggered maximum glycolytic capacity [3]: significant increase
- induction of trained immunity (TNF and IL6 after LPS re-stimulation on day 6) ([4]; 24 hours training, 5-day rest, LPS 24 hours): induced a trained immunity phenotype on day 6
- lactate at baseline of trained cells ([4]; IL4-trained cells, day 6, data not shown): produced more lactate at baseline
- effect on β-glucan-induced trained immunity ([4]; IL4 added in the first 24 hours with β-glucan): did not inhibit the training effect
